Source: patent US11096942B2, “Heterocyclic compounds and uses thereof” (Celgene CAR LLC, priority 2010, dated 2021)
Like-named read-outs stand apart in the source and are kept apart here.

What was measured:
[1] = target: EGFR L858R/T790M (H1975 cells) (Homo sapiens (Human), UniProt P00533, L858R/T790M); test: Phospho-EGFR signaling immunoblot (1 hr), H1975 cells; type: cell-based; details: WT EGFR (A431) vs H1975
Protocol: (§1) A431 human epidermoid carcinoma, H1975 human NSCLC and HCC827 human NSCLC adenocarcinoma cells were obtained from the American Type Culture Center (Manassas, Va.). A431 cells were grown in DMEM (Invitrogen, Carlsbad, Calif.) supplemented with 10% FBS (HyClone, South Logan, Utah) and 1% Penicillin-Streptomycin (P/S, Lonza, Walkersville, Md.).
All primary antibodies were obtained from Cell Signaling (Danvers, Mass.) and used at 1:1000. Secondary antibodies were used at 1:10,000. Goat anti-mouse IgG IRDye 800CW antibody was obtained from LiCor Biosciences (Lincoln, Nebr.) and goat anti-rabbit IgG Alexa Fluor 680 was obtained from Invitrogen.
Cells were grown in 12-well plates (Corning, Coring, N.Y.) to 90% confluence and then incubated in low-serum (0.1% FBS) media for 16-18 hr. […] A431 cells were then stimulated with 50 ng/ml EGF (Peprotech, Rocky Hill, N.J.) for 15 min. After treatment, cell monolayers were washed with cold PBS (Invitrogen) and immediately lysed by scrapping into 60 uL cold Cell Extraction Buffer (Invitrogen) supplemented with Complete Protease inhibitors (Roche, Indianapolis, Ind.) and PhosphoSTOP (Roche) phosphatase inhibitors.
Phospho-protein signals were quantitated using Odyssey Infrared Imaging (Li-Cor Biosciences).
To assess phosphor-EGFR signaling, blots were probed with rabbit anti-Phospho-EGFR (Y1068) and mouse total anti-EGFR antibodies. Phospho-EGFR signal was normalized to total EGFR expression for each sample. […] Normalized data was fitted using a sigmoidal curve analysis program (Graph Pad Prism version 5) with variable Hill slope to determine the EC50 values.

[2] = tested on: H1975 cells (EGFR L858R/T790M); test: Cell proliferation (CellTiter Glo, 72 hr), H1975 cells; type: cell-based, human
Protocol: as §1
(§2) Cells were plated in Growth Media supplemented with 5% FBS and 1% P/S at a density of 3,000 cells per well in 96 well tissue culture plates (Corning). […] Growth inhibition (GI50) values were determined by Graph Pad Prism.

[3] = tested on: HCC827 cells (EGFR delE746-A750); test: Cell proliferation (CellTiter Glo, 72 hr), HCC827 cells; type: cell-based, human
Protocol: as §1, §2

[4] = proliferation, WT EGFR (A431) vs H1975
[5] = proliferation, WT EGFR (A431) vs HCC827

Row | SMILES | Ratio WT/mutant [1] | Ratio WT/mutant [2, 4] | Ratio WT/mutant [3, 5] | Ratio WT/mutant [2] | Ratio WT/mutant [3]
1 | C=CC(=O)Nc1cccc(Oc2nc(Nc3ccc(N4CCOCC4)cc3OC)ncc2C(F)(F)F)c1 [Compound I-1, N-(3-(2-(2-methoxy-4-morpholinophenylamino)-5-(trifluoromethyl)pyrimidin-4-yloxy)phenyl)acrylamide] | >50 | >15 | >15 | – | –
2 | C=CC(=O)Nc1cccc(Oc2nc(Nc3ccc(N4CCN(C(=O)CO)CC4)cc3OC)ncc2Cl)c1 [Compound I-3, N-(3-(5-chloro-2-(4-(4-(2-hydroxyacetyl)piperazin-1-yl)-2-methoxyphenylamino)pyrimidin-4-yloxy)phenyl)acrylamide] | >5 | >5 | >45 | – | –
3 | C=CC(=O)Nc1cccc(Oc2nc(Nc3ccc(N4CCOCC4)cc3OC)ncc2Cl)c1 [Compound I-5, N-(3-(5-chloro-2-(2-methoxy-4-morpholinophenylamino)pyrimidin-4-yloxy)phenyl)acrylamide] | >30 | >5 | >20 | – | –
4 | C=CC(=O)Nc1cccc(Nc2nc(Nc3ccc(N4CCN(C(=O)CO)CC4)cc3OC)ncc2C(F)(F)F)c1 [Compound I-6, N-(3-(2-(4-(4-(2-hydroxyacetyl)piperazin-1-yl)-2-methoxyphenylamino)-5-(trifluoromethyl)pyrimidin-4-ylamino)phenyl)acrylamide] | >20 | >10 | >40 | – | –
5 | C=CC(=O)Nc1cccc(Nc2nc(Nc3ccc(N4CCCN(C(C)=O)CC4)cc3OC)ncc2C(F)(F)F)c1 [Compound I-7, N-(3-(2-(4-(4-acetyl-1,4-diazepan-1-yl)-2-methoxyphenylamino)-5-(trifluoromethyl)pyrimidin-4-ylamino)phenyl)acrylamide] | >5 | >1 | >10 | – | –
6 | C=CC(=O)Nc1cccc(Nc2nc(Nc3ccc(N4CCN(C(C)=O)CC4)cc3OC)ncc2Cl)c1 [Compound I-8, N-(3-(2-(4-(4-acetylpiperazin-1-yl)-2-methoxyphenylamino)-5-chloropyrimidin-4-ylamino)phenyl)acrylamide] | >1 | >1 | >20 | – | –
7 | C=CC(=O)Nc1cccc(Oc2nc(Nc3ccc(N4CCN(C(C)=O)CC4)cc3OC)ncc2Cl)c1 [Compound I-9, N-(3-(2-(4-(4-acetylpiperazin-1-yl)-2-methoxyphenylamino)-5-chloropyrimidin-4-yloxy)phenyl)acrylamide] | – | >5 | >50 | – | –
8 | C=CC(=O)Nc1cccc(Oc2nc(Nc3ccc(N4CCN(C(C)=O)CC4)cc3OC)ncc2C(F)(F)F)c1 [Compound I-10, N-(3-(2-(4-(4-acetylpiperazin-1-yl)-2-methoxyphenylamino)-5-(trifluoromethyl)pyrimidin-4-yloxy)phenyl)acrylamide] | – | >1 | >20 | – | –
9 | C=CC(=O)Nc1cccc(Oc2nc(Nc3ccc(N4CCOCC4)cc3OC(F)F)ncc2C(F)(F)F)c1 [Compound I-13, N-(3-(2-(2-(difluoromethoxy)-4-morpholinophenylamino)-5-(trifluoromethyl)pyrimidin-4-yloxy)phenyl)acrylamide] | – | >10 | >50 | – | –
10 | C=CC(=O)Nc1cccc(Nc2nc(Nc3ccc(N4CCOCC4)cc3OC)ncc2Cl)c1 [Compound I-15, N-(3-(5-chloro-2-(2-methoxy-4-morpholinophenylamino)pyrimidin-4-ylamino)phenyl)acrylamide] | – | >1 | >10 | – | –
11 | C=CC(=O)Nc1cccc(Oc2nc(Nc3ccc(N4CCN(C(=O)OC(C)(C)C)CC4)cc3OCC)ncc2Cl)c1 [Compound I-18, tert-butyl 4-(4-(4-(3-acrylamidophenoxy)-5-chloropyrimidin-2-ylamino)-3-ethoxyphenyl)piperazine-1-carboxylate] | – | >1 | >5 | – | –
12 | C=CC(=O)Nc1cccc(Nc2nc(Nc3ccc(N4CCCN(C(=O)C(F)(F)F)CC4)cc3OC)ncc2C(F)(F)F)c1 [Compound I-19, N-(3-(2-(2-methoxy-4-(4-(2,2,2-trifluoroacetyl)-1,4-diazepan-1-yl)phenylamino)-5-(trifluoromethyl)pyrimidin-4-ylamino)phenyl)acrylamide] | – | >5 | >10 | – | –
13 | C=CC(=O)Nc1cccc(Oc2nc(Nc3ccc(N4CCN(C(=O)OC)CC4)cc3OC)ncc2C(F)(F)F)c1 [Compound I-20, methyl 4-(4-(4-(3-acrylamidophenoxy)-5-(trifluoromethyl)pyrimidin-2-ylamino)-3-methoxyphenyl)piperazine-1-carboxylate] | – | – | – | >5 | >15
14 | C=CC(=O)Nc1cccc(Oc2nc(Nc3ccc(N4CCN(C(=O)CC(C)(C)C)CC4)cc3OC)ncc2Cl)c1 [Compound I-23, N-(3-(5-chloro-2-(4-(4-(3,3-dimethylbutanoyl)piperazin-1-yl)-2-methoxyphenylamino)pyrimidin-4-yloxy)phenyl)acrylamide] | – | >1 | >20 | – | –
15 | C=CC(=O)Nc1cccc(Oc2nc(Nc3ccc(N4CCN(S(N)(=O)=O)CC4)cc3OC)ncc2C(F)(F)F)c1 [Compound I-27, N-(3-(2-(2-methoxy-4-(4-sulfamoylpiperazin-1-yl)phenylamino)-5-(trifluoromethyl)pyrimidin-4-yloxy)phenyl)acrylamide] | – | >1 | >10 | – | –
16 | C=CC(=O)Nc1cccc(Nc2nc(Nc3ccc(N4CCN(C(=O)NC)CC4)cc3OC)ncc2C(F)(F)F)c1 [Compound I-28, 4-(4-(4-(3-acrylamidophenylamino)-5-(trifluoromethyl)pyrimidin-2-ylamino)-3-methoxyphenyl)-N-methylpiperazine-1-carboxamide] | – | >5 | >50 | – | –
17 | C=CC(=O)Nc1cccc(Nc2nc(Nc3ccc(N4CCN(C(=O)OC)CC4)cc3OC)ncc2C(F)(F)F)c1 [Compound I-29, methyl 4-(4-(4-(3-acrylamidophenylamino)-5-(trifluoromethyl)pyrimidin-2-ylamino)-3-methoxyphenyl)piperazine-1-carboxylate] | – | >10 | >15 | – | –
18 | C=CC(=O)Nc1cccc(Nc2nc(Nc3ccc(N4CCN(C(=O)CC)CC4)cc3OC)ncc2C(F)(F)F)c1 [Compound I-35, N-(3-(2-(2-methoxy-4-(4-propionylpiperazin-1-yl)phenylamino)-5-(trifluoromethyl)pyrimidin-4-ylamino)phenyl)acrylamide] | – | >10 | >25 | – | –
19 | C=CC(=O)Nc1cccc(Oc2nc(Nc3ccc(N4CCOCC4)cc3OC(F)F)ncc2Cl)c1 [Compound I-36, N-(3-(5-chloro-2-(2-(difluoromethoxy)-4-morpholinophenylamino)pyrimidin-4-yloxy)phenyl)acrylamide] | – | >25 | >50 | – | –
20 | C=CC(=O)Nc1cccc(Oc2nc(Nc3ccc(N4CCCOCC4)cc3OC)ncc2Cl)c1 [Compound I-37, N-(3-(5-chloro-2-(2-methoxy-4-(1,4-oxazepan-4-yl)phenylamino)pyrimidin-4-yloxy)phenyl)acrylamide] | – | >1 | >10 | – | –
21 | C=CC(=O)Nc1cccc(Nc2nc(Nc3ccc(N4CCCOCC4)cc3OC)ncc2C(F)(F)F)c1 [Compound I-38, N-(3-(2-(2-methoxy-4-(1,4-oxazepan-4-yl)phenylamino)-5-(trifluoromethyl)pyrimidin-4-ylamino)phenyl)acrylamide] | – | >1 | >5 | – | –
22 | C=CC(=O)Nc1cccc(Oc2nc(Nc3ccc(N4CCCN(C(=O)OC(C)(C)C)CC4)cc3OC)ncc2C(F)(F)F)c1 [Compound I-39, tert-butyl 4-(4-(4-(3-acrylamidophenoxy)-5-(trifluoromethyl)pyrimidin-2-ylamino)-3-methoxyphenyl)-1,4-diazepane-1-carboxylate] | – | <1 | >1 | – | –
23 | C=CC(=O)Nc1cccc(Nc2nc(Nc3ccc(N4CCN(C(=O)OC(C)(C)C)[C@H](C(=O)OC)C4)cc3OC)ncc2C(F)(F)F)c1 [Compound I-50, (S)-1-tert-butyl 2-methyl 4-(4-(4-(3-acrylamidophenylamino)-5-(trifluoromethyl)pyrimidin-2-ylamino)-3-methoxyphenyl)piperazine-1,2-dicarboxylate] | – | >10 | >50 | – | –
